The values that follow come from patent US8629282B2, “Heterocyclic compounds as S1P1 agonists for the treatment of autoimmune and vascular diseases” (Bristol-Myers Squibb Company, priority 2010, dated 2014).

For orientation: IC50 means the concentration at which inhibition is half-maximal. The EC50 is the concentration that produces a half-maximal response. A lower EC50 goes with greater potency.

The target in assay [1] is human S1P1 (Homo sapiens (Human), UniProt P21453). As to the kind of experiment: S1P1 Binding Assay (33P-S1P radioligand competition). The conditions noted are these: membranes of CHO cells expressing human S1P1, 0.03 nM 33P-S1P; rounded to two digits. As for the experimental part:
Membranes were prepared from CHO cells expressing human S1P1. Cells were dissociated in buffer containing 20 mM HEPES, pH 7.5, 50 mM NaCl, 2 mM EDTA and Protease Inhibitor cocktail (Roche), and disrupted on ice using the Polytron homogenizer. The homogenate was centrifuged at 20,000 rpm (48,000 G) and the supernatant was discarded. The membrane pellets were resuspended in buffer containing 50 mM HEPES, pH 7.5, 100 mM NaCl, 1 mM MgCl2, 2 mM EDTA and stored in aliquots at −80° C. after protein concentration determination.
Membranes (2 μg/well) and 0.03 nM final concentration of 33P-S1P ligand (1 mCi/ml, American Radiolabeled Chemicals) were added to the compound plates. Binding was performed for 45 minutes at room temperature, terminated by collecting the membranes onto GF/B filter plates, and radioactivity was measured by TOPCOUNT®. The competition data of the test compounds over a range of concentrations was plotted as percentage inhibition of radioligand specific binding. The IC50 is defined as the concentration of competing ligand needed to reduce specific binding by 50%.
The results in Table A were rounded to two digits.
A general note: Loss of bound radioactivity is the signal in a displacement assay; it reports binding, not function.

Assay [2] deals with S1P1 (membranes from S1P1/CHO cells) (Homo sapiens (Human), UniProt P21453). As to the kind of experiment: Receptor [35S] GTPγS Binding Assay, S1P1. It counts as biochemical. The conditions noted are these: for EC50: S1P1/CHO membranes; for GTPγS S1P3/S1P1 (ratio of GTPγS S1P3 EC50 to GTPγS S1P1 EC50): calculated from Table B, S1P3 detection limit 31250 nM. As for the experimental part:
(§1) Receptor [35S] GTPγS Binding Assays
(§2) Compounds were loaded in a 384 FALCON® v-bottom plate (0.5 μl/well in a 3-fold dilution). Membranes prepared from S1P1/CHO cells or EDG3-Ga15-bla HEK293T cells were added to the compound plate (40 μl/well, final protein 3 μg/well) with MULTIDROP®. [^35S]GTP (1250 Ci/mmol, Perkin Elmer) was diluted in assay buffer: 20 mM HEPES, pH7.5, 10 mM MgCl2, 150 mM NaCl, 1 mM EGTA, 1 mM DTT, 10 μM GDP, 0.1% fatty acid free BSA, and 10 μg/ml Saponin to 0.4 nM. 40 μl of the [^35S] GTP solution was added to the compound plate with a final concentration of 0.2 nM. The reaction was kept at room temperature for 45 min. At the end of incubation, all the mixtures in the compound plate were transferred to a 384 well FB filter plates via GPCR robot system. The filter plate was washed with water 4 times by using the modified manifold Embla plate washer and dried at 60° C. for 45 min. 30 μl of MicroScint 20 scintillation fluid was added to each well for counting at Packard TOPCOUNT®. EC50 is defined as the agonist concentration that corresponds to 50% of the Ymax (maximal response) obtained for each individual compound tested.
A larger value for the GTPγS S1P3 EC50 value indicated less activity in the GTPγS S1P3 binding assay.

In assay [3] the target is S1P3 (membranes from EDG3-Ga15-bla HEK293T cells) (Homo sapiens (Human), UniProt Q99500). As to the kind of experiment: Receptor [35S] GTPγS Binding Assay, S1P3. The assay is classed as biochemical. The conditions noted are these: detection limit 31250 nM. As for the experimental part: as §1, §2
A smaller value for GTPγS S1P1 EC50 value indicated greater activity for the compound in the GTPγS S1P1 binding assay. A larger value for the GTPγS S1P3 EC50 value indicated less activity in the GTPγS S1P3 binding assay.
A general note: Binding of GTPγS marks nucleotide exchange on a G protein.

Assay [4] relates to circulating blood lymphocytes. Nature of the assay: Blood Lymphocyte Reduction Assay (BLR) in Rodents. The assay is classed as in vivo. The conditions noted are these: Lewis rats, oral, vs vehicle group. As for the experimental part:
Blood Lymphocyte Reduction Assay (BLR) in Rodents
Lewis rats were dosed orally with test article (as a solution or suspension in the vehicle) or vehicle alone (polyethylene glycol 300, “PEG300”). Blood was drawn at 4 hr by retro-orbital bleeding. Blood lymphocyte counts were determined on an ADVIA® 120 Hematology Analyzer (Siemens Healthcare Diagnostics). The results were measured as a reduction in the percentage of circulating lymphocytes as compared to the vehicle treated group at the 4 hr measurement. The results represent the average results of all animals within each treatment group (n=3-4).
The following examples were tested in the Blood Lymphocyte Reduction assay (BLR) described herein above and the results are shown in Table D for rats.

Marks after values point to notes of the source that are not given here.

S1P3 (membranes from EDG3-Ga15-bla HEK293T cells), sequence (Q99500 whole entry): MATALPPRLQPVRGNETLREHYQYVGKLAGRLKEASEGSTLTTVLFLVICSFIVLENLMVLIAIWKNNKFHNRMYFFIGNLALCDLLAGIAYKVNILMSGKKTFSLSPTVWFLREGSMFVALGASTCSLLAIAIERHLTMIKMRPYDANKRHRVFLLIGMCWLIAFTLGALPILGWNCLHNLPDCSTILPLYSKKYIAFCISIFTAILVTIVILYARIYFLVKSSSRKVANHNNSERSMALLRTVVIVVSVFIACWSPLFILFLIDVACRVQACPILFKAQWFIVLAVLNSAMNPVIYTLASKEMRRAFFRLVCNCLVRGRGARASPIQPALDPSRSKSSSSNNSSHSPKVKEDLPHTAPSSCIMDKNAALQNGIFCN
S1P1 (membranes from S1P1/CHO cells), sequence (P21453 whole entry): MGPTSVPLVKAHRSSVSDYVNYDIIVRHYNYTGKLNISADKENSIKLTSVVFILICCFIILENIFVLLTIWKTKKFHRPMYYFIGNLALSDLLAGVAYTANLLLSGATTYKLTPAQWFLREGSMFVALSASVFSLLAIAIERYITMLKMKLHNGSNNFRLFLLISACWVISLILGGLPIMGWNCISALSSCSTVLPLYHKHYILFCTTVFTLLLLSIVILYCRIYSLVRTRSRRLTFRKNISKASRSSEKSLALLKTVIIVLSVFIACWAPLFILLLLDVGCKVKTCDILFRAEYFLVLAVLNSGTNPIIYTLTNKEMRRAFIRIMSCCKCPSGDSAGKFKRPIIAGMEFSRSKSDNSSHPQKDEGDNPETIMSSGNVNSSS
human S1P1, sequence (P21453 whole entry): as above

For the molecule `CCOC(=O)C1CCCC(N[C@@H]2COc3cc(-c4noc(-c5onc(-c6ccccc6)c5C(F)(F)F)n4)ccc3[C@@H]2O)C1` (relative stereo) [Example 13, ethyl 3-((3R*,4S*)-4-hydroxy-7-(5-(3-phenyl-4-(trifluoromethyl)isoxazol-5-yl)-1,2,4-oxadiazol-3-yl)chroman-3-ylamino)cyclohexanecarboxylate], in assay [1], the IC50 is 630 nM. Besides, in assay [2], the EC50 is 160 nM and the “GTPγS S1P3/S1P1 (ratio of GTPγS S1P3 EC50 to GTPγS S1P1 EC50)” value is recorded as > 200*. The EC50 in assay [3] was over 31000 nM.

Consider `N[C@@H]1COc2cc(-c3noc(-c4onc(-c5ccccc5)c4C(F)(F)F)n3)ccc2[C@H]1O` (racemic) [Example 4, (3R*,4R*)-3-amino-7-(5-(3-phenyl-4-(trifluoromethyl)isoxazol-5-yl)-1,2,4-oxadiazol-3-yl)chroman-4-ol], for which, in assay [1], the IC50 was determined as 23 nM. Moreover, the concentration for a half-maximal effect (EC50) in assay [2] was 80 nM; in assay [3], 13000 nM.

Take `N[C@@H]1COc2cc(-c3noc(-c4onc(-c5ccccc5)c4C(F)(F)F)n3)ccc2[C@H]1O` (relative stereo) [Example 4, (3R*,4R*)-3-amino-7-(5-(3-phenyl-4-(trifluoromethyl)isoxazol-5-yl)-1,2,4-oxadiazol-3-yl)chroman-4-ol]: the “GTPγS S1P3/S1P1 (ratio of GTPγS S1P3 EC50 to GTPγS S1P1 EC50)” value in assay [2] is 160.

As to `O=C(O)CC1CCCN([C@@H]2COc3cc(-c4noc(-c5onc(-c6ccccc6)c5C(F)(F)F)n4)ccc3[C@@H]2O)C1` (single isomer, unassigned) [Example 50], in assay [1], the IC50 stood at 57 nM. For the same molecule, in assay [2], the EC50 was 27 nM and the “GTPγS S1P3/S1P1 (ratio of GTPγS S1P3 EC50 to GTPγS S1P1 EC50)” value is 870. A half-maximal response in assay [3] (EC50) required 24000 nM.

As to `N[C@@H]1COc2cc(-c3noc(-c4onc(-c5ccccc5)c4C(F)(F)F)n3)ccc2[C@@H]1O` [Example 9, (3R,4S)-3-Amino-7-(5-(3-phenyl-4-(trifluoromethyl)isoxazol-5-yl)-1,2,4-oxadiazol-3-yl)chroman-4-ol], in assay [1], the IC50 worked out at 39 nM. Further, the EC50 in assay [2] amounted to 33 nM; in assay [3], 8600 nM. For the same molecule, in assay [2], the “GTPγS S1P3/S1P1 (ratio of GTPγS S1P3 EC50 to GTPγS S1P1 EC50)” value is listed as 260.

`O=C(O)[C@@H]1CCC[C@@H](N[C@@H]2COc3cc(-c4noc(-c5onc(-c6ccccc6)c5C(F)(F)F)n4)ccc3[C@@H]2O)C1` [Example 65, (1R,3R)-3-((3R,4S)-4-hydroxy-7-(5-(3-phenyl-4-(trifluoromethyl)isoxazol-5-yl)-1,2,4-oxadiazol-3-yl)chroman-3-ylamino)cyclohexanecarboxylic acid]: the IC50 in assay [1] came out at 6.6 nM. Further, in assay [2], the EC50 is 1.1 nM and the “GTPγS S1P3/S1P1 (ratio of GTPγS S1P3 EC50 to GTPγS S1P1 EC50)” value is reported as 9600. This molecule displayed an EC50 in assay [3] of 11000 nM. Moreover, in assay [4] (0.5 mg/kg), the “% Reduction in Lymphocytes at 4 hr.” value is 55%.

`O=C(O)CCN[C@@H]1COc2cc(-c3noc(-c4onc(-c5ccccc5)c4C(F)(F)F)n3)ccc2[C@@H]1O` [Example 53, 3-((3R,4S)-4-Hydroxy-7-(5-(3-phenyl-4-(trifluoromethyl)isoxazol-5-yl)-1,2,4-oxadiazol-3-yl)chroman-3-ylamino)propanoic acid]: the 50% effective concentration (EC50) in assay [3] was 22000 nM.

`O=C(O)[C@H]1CCC[C@H](N[C@@H]2COc3cc(-c4noc(-c5onc(-c6ccccc6)c5C(F)(F)F)n4)ccc3[C@@H]2O)C1` [Example 57, (1S,3S)-3-((3R,4S)-4-hydroxy-7-(5-(3-phenyl-4-(trifluoromethyl)isoxazol-5-yl)-1,2,4-oxadiazol-3-yl)chroman-3-ylamino)cyclohexanecarboxylic acid] displayed an IC50 in assay [1] of 0.7 nM. Further, in assay [2], the EC50 was determined as 1 nM and the “GTPγS S1P3/S1P1 (ratio of GTPγS S1P3 EC50 to GTPγS S1P1 EC50)” value was 7300. The molecule also yielded an EC50 in assay [3] of 7300 nM. The “% Reduction in Lymphocytes at 4 hr.” value in assay [4] (0.5 mg/kg) is 69%.

As for `O=C(O)[C@H]1C[C@@H](N[C@H]2COc3cc(-c4noc(-c5onc(-c6ccccc6)c5C(F)(F)F)n4)ccc3[C@H]2O)C1` [Example 25, (1R,3S)-3-((3S,4R)-4-hydroxy-7-(5-(3-phenyl-4-(trifluoromethyl)isoxazol-5-yl)-1,2,4-oxadiazol-3-yl)chroman-3-ylamino)cyclobutanecarboxylic acid], the response in assay [3] was half-maximal at 12000 nM (EC50). Moreover, the “% Reduction in Lymphocytes at 4 hr.” value in assay [4] (3 mg/kg) is 93%.

The molecule `O=C(O)CN[C@@H]1COc2cc(-c3noc(-c4onc(-c5ccccc5)c4C(F)(F)F)n3)ccc2[C@@H]1O` [Example 68, 2-((3R,4S)-4-hydroxy-7-(5-(3-phenyl-4-(trifluoromethyl)isoxazol-5-yl)-1,2,4-oxadiazol-3-yl)chroman-3-ylamino)acetic acid] displayed an IC50 in assay [1] of 3.8 nM. In addition, in assay [2], the midpoint of the response, the EC50, lay at 5.4 nM and the “GTPγS S1P3/S1P1 (ratio of GTPγS S1P3 EC50 to GTPγS S1P1 EC50)” value is on record as 960. Besides, the half-maximal effective concentration (EC50) in assay [3] was 5200 nM.

Regarding `O=C(O)CCN[C@H]1COc2cc(-c3noc(-c4onc(-c5ccccc5)c4C(F)(F)F)n3)ccc2[C@@H]1O` (racemic) [Example 5, 3-((3R*,4R*)-4-hydroxy-7-(5-(3-phenyl-4-(trifluoromethyl)isoxazol-5-yl)-1,2,4-oxadiazol-3-yl)chroman-3-ylamino)propanoic acid], the EC50 in assay [3] was found to be 25000 nM. In other words, the double-digit micromolar range.

As for `O=C(O)C1(CN[C@@H]2COc3cc(-c4noc(-c5onc(-c6ccccc6)c5C(F)(F)F)n4)ccc3[C@@H]2O)CC1` [Example 30, 1-(((3R,4S)-4-hydroxy-7-(5-(3-phenyl-4-(trifluoromethyl)isoxazol-5-yl)-1,2,4-oxadiazol-3-yl)chroman-3-ylamino)methyl)cyclopropanecarboxylic acid], in assay [1], the half-inhibitory concentration (IC50) amounted to 13 nM. Also, in assay [2], the EC50 turned out to be 6.5 nM and the “GTPγS S1P3/S1P1 (ratio of GTPγS S1P3 EC50 to GTPγS S1P1 EC50)” value is 1200. In assay [3], this molecule had an EC50 of 8000 nM.

Regarding `O=C(O)C1(CN[C@@H]2COc3cc(-c4noc(-c5onc(-c6ccccc6)c5C(F)(F)F)n4)ccc3[C@@H]2O)CCC1` [Example 41, 1-(((3R,4S)-4-hydroxy-7-(5-(3-phenyl-4-(trifluoromethyl)isoxazol-5-yl)-1,2,4-oxadiazol-3-yl)chroman-3-ylamino)methyl)cyclobutanecarboxylic acid], the half-maximal inhibitory concentration (IC50) in assay [1] turned out to be 20 nM. In assay [2], the EC50 was determined as 16 nM and the “GTPγS S1P3/S1P1 (ratio of GTPγS S1P3 EC50 to GTPγS S1P1 EC50)” value is 510. The EC50 in assay [3] was 8400 nM. For the same molecule, the “% Reduction in Lymphocytes at 4 hr.” value in assay [4] (0.5 mg/kg) is 11%.

In assay [1], `O=C(O)C1(CN[C@@H]2COc3cc(-c4noc(-c5onc(-c6ccccc6)c5C(F)(F)F)n4)ccc3[C@@H]2O)CCCCC1` [Example 39, 1-(((3R,4S)-4-hydroxy-7-(5-(3-phenyl-4-(trifluoromethyl)isoxazol-5-yl)-1,2,4-oxadiazol-3-yl)chroman-3-ylamino)methyl)cyclohexanecarboxylic acid] displayed an IC50 of 541 nM. Further, in assay [2], a half-maximal effect (EC50) was put at 85 nM and the “GTPγS S1P3/S1P1 (ratio of GTPγS S1P3 EC50 to GTPγS S1P1 EC50)” value is listed as > 370*. The same molecule gave a half-maximal effective concentration (EC50) in assay [3] of over 31000 nM.
